ChEMBL document CHEMBL1201862, “PubChem BioAssay data set” (2004)
Active and inactive are the calls of the source.

What was measured:
[1] = biological target: Mitogen-activated protein kinase 10 (Homo sapiens, UniProt P53779); assay: Dose response biochemical screening assay for inhibitors of c-Jun N-Terminal Kinase 3 (JNK3). [Related pubchem assays: 746 ]
Estrogen receptor beta [2] = biological target: T1, Estrogen receptor beta (Homo sapiens, UniProt Q92731);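 also: recombinant ER-beta bound to coactivator SRC1 peptide in presence of estradiol agonist; inhibitors block coactivator peptide binding and lower the FRET signal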
T1 sequence (Q92731 whole entry): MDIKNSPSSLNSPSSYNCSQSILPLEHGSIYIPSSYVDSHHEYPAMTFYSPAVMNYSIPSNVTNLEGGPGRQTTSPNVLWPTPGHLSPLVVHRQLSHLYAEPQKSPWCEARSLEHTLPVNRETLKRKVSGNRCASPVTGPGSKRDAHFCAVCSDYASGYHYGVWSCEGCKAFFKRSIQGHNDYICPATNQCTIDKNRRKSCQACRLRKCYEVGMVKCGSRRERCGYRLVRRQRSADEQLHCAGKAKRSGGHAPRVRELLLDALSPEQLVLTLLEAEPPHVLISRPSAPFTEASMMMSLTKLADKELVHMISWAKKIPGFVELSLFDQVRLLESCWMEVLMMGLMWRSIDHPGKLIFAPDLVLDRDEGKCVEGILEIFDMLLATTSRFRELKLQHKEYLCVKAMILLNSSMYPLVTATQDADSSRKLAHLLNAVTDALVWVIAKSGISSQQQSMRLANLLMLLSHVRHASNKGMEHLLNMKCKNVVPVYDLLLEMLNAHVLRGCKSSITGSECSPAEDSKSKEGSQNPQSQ

Estrogen receptor beta [3] = biological target: T1, Estrogen receptor beta; assay: ERβ–SRC-3 coactivator interaction inhibitors, confirmation, orthogonal assay, biochemical, ELISA, streptavidin-HRP readout (AID 1060)
BJ [4] = assay: cytotoxicity toward BJ-TERT fibroblasts, dose response, cell-based, RAS-independent, luminescence (AID 1933); assay type: functional; conditions: Homo sapiens
BJ [5] = assay: cells; assay type: functional, cell-based; conditions: Homo sapiens
BJ [6] = assay: cytotoxicity toward BJ-TERT-LT-ST fibroblasts, dose response, cell-based, RAS-independent, luminescence (AID 1935); assay type: functional; conditions: Homo sapiens;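 also: BJ fibroblasts immortalized with TERT plus LT and ST oncogenes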
[7] = cytotoxicity toward DRD oncogenic fibroblasts, dose response, cell-based, non-viral oncogenic, luminescence (AID 1934); assay type: functional; conditions: Homo sapiens
[8] = Vero cell cytotoxicity, dose response, cytotoxicity control for Vif-APOBEC3G degradation inhibitor project, Vero cells (AID 1117358); assay type: functional; conditions: Human immunodeficiency virus 1, Vero
SUMO-activating enzyme [9] = biological target: T2, SUMO-activating enzyme (Homo sapiens, UniProt Q9UBT2); assay: SUMOylation inhibitor hit validation, confirmation, SUMOylation inhibitor project, biochemical, AlphaScreen (AID 2018); assay type: functional
T2 sequence (Q9UBE0 whole entry): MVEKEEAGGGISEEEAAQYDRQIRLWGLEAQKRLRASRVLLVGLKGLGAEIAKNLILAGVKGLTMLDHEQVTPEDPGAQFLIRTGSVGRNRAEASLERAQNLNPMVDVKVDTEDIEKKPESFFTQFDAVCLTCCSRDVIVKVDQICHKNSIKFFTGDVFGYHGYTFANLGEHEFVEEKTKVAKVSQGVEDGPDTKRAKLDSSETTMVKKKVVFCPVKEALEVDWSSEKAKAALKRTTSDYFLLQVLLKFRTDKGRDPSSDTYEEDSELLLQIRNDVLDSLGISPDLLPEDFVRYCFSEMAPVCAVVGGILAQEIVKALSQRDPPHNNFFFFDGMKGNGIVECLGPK
T2 sequence (Q9UBT2 whole entry): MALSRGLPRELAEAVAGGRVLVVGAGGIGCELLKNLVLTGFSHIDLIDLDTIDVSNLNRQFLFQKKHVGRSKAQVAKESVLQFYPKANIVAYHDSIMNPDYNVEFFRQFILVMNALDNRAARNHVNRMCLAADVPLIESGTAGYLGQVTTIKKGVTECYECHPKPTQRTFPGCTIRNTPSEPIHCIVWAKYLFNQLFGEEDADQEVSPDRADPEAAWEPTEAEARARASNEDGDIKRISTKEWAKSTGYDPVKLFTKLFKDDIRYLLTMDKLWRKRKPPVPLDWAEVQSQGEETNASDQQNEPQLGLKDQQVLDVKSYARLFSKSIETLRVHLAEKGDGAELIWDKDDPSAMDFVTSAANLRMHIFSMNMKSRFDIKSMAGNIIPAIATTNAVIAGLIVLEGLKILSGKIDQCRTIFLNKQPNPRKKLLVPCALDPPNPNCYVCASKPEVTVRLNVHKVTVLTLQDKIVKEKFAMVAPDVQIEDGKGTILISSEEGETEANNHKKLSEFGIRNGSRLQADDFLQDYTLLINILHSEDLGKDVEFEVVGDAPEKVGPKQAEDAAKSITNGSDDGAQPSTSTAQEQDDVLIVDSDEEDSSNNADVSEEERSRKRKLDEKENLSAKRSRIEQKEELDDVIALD

Large T antigen = Large T antigen (Simian virus 40, UniProt P03070); assay type: functional, Betapolyomavirus macacae;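 also: Confirmatory-stage PubChem screen for compounds that inhibit SV40 T antigen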
Sequence of Large T antigen (P03070 whole entry): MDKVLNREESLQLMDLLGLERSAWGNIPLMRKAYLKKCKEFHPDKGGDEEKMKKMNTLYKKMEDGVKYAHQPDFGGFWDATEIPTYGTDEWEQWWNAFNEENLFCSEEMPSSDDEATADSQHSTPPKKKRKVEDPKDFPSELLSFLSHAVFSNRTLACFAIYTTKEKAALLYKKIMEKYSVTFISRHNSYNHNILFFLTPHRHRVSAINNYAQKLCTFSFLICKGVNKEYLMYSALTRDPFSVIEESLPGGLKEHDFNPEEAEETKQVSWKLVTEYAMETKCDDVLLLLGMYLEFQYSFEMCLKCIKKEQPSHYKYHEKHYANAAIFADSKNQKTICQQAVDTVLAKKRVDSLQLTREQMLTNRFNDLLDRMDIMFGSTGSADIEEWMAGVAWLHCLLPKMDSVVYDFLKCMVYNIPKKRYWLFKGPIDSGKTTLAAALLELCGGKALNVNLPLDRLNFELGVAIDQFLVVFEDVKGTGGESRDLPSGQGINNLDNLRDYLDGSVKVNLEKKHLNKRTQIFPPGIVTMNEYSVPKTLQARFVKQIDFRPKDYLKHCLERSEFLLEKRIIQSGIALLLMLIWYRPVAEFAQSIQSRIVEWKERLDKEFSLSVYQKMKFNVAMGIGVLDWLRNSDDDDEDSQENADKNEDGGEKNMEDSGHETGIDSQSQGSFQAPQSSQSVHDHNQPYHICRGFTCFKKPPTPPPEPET

SUMO-activating enzyme [10] = biological target: T2, SUMO-activating enzyme; assay: inhibitors of in vitro SUMOylation cascade, primary screen, biochemical, HTRF, uHTS (AID 2006); assay type: protein-complex assay
Protein RecA = biological target: T3, Protein RecA (Mycobacterium tuberculosis, UniProt P9WHJ3); assay: Fluorescence Cell-Free Homogeneous Dose Retest to Identify Inhibitors of RecA-Intein Splicing Activity. [Related pubchem assays (depositor defined):AID2097, AID2223, AID489010, AID492950]; assay type: functional
T3 sequence (P9WHJ3 whole entry): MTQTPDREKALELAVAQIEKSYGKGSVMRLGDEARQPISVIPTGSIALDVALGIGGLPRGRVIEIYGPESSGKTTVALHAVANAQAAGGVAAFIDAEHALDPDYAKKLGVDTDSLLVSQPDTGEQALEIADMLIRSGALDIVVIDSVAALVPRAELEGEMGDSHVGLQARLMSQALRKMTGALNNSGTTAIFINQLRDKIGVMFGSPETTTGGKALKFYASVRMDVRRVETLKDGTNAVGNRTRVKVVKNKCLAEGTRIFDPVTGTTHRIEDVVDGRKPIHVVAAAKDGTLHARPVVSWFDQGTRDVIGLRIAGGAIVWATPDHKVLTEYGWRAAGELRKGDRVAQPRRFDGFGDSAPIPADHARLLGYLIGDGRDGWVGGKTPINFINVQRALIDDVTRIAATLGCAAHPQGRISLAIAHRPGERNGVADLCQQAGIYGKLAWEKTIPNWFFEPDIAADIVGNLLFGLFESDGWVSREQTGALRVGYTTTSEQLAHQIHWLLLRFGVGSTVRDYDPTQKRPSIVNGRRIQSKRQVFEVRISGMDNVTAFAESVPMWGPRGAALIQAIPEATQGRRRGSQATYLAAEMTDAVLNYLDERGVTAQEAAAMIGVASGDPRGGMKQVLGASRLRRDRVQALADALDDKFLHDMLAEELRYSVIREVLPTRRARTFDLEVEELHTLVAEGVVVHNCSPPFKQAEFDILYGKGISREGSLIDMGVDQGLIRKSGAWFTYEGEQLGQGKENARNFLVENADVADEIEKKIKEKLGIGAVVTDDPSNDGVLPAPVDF

Protein Tat = Protein Tat (Human immunodeficiency virus type 1 group M subtype B (isolate HXB2)(HIV-1), UniProt P04608); assay type: functional;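 also: tat binding to TAR RNA read out by fluorescence polarization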
Sequence of Protein Tat (P04608 whole entry): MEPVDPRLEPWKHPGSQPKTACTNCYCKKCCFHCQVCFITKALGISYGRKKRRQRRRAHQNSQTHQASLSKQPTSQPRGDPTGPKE

Sequence of Mitogen-activated protein kinase 10 (P53779 whole entry): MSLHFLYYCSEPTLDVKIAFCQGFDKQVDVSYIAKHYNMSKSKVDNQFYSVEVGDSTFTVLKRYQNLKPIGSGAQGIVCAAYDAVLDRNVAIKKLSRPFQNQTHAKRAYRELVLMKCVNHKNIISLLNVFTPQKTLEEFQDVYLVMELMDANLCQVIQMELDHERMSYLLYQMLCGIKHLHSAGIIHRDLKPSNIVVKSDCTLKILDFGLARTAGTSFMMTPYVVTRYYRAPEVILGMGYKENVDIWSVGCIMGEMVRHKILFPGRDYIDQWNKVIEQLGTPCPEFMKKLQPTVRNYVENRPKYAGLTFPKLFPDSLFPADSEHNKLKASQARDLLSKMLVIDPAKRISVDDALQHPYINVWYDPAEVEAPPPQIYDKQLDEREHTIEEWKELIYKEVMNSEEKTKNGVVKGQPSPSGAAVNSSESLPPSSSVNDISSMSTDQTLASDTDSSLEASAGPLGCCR

Compound: c1ccc(-c2onc3cc4c(cc23)OCCO4)cc1
- IC50 [1]: 50.1 µM (not active)

Compound: c1ccc(Cc2nnc3sc(-c4ccco4)nn23)cc1
- IC50 (Estrogen receptor beta [2]): 11.4 µM (active)
- IC50 (Estrogen receptor beta [3]): 15.2 µM (not active)

Compound: CCCOc1ccccc1C1CC(=O)NC2=C1C(=O)CCC2 (stereo not given)
- EC50 (BJ [4]): 16 µM (active)
- EC50 (BJ [5]): 44.4 µM (active)
- EC50 (BJ [6]): 17.2 µM (active)
- EC50 [7]: 32.7 µM (active)
- CC50 [8]: > 40 µM (active)

Compound: Oc1c2nc3cccc(Cl)c3c-2ncn1Cc1ccncc1
- IC50 [1]: > 93.1 µM (not active)

Compound: Cc1ccsc1/C=N/c1ccc(O)cc1
- IC50 (SUMO-activating enzyme [9]): 2.36 µM (active)
- IC50 (Large T antigen): 31.2 µM (active)
- IC50 (SUMO-activating enzyme [10]): 9.41 µM (active)
- EC50 (Protein RecA): > 380 µM (inconclusive)
- IC50 (Protein Tat): 30.5 µM (inconclusive)

Compound: Nc1ccccc1NC1=CC(=O)CC(c2ccco2)C1 (stereo not given)
- IC50 (Protein Tat): 31.6 µM (inconclusive)
